PubChem BioAssay (NCI)
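Where inhibition never reached the appropriate level, the endpoint shown equals the highest concentration tested. Otherwise, values were interpolated linearly from a five-concentration, 48-hour dose response in 96-well plates. GI50 marks 50% less growth. TGI is the concentration that stops growth completely.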

Experiments:
Experiment in all cases: NCI anticancer screen, dose series, 48 h; in the data active means GI50 below about 0.43 µM; inactive means the rest
[1] = system: OVCAR-4 ovarian
[2] = system: UACC-62 melanoma
[3] = system: HT29 colon
[4] = system: SNB-19 CNS
[5] = system: HOP-92 NSCLC
[6] = system: KM12 colon
[7] = system: RXF 393 renal
[8] = system: SK-MEL-2 melanoma
[9] = system: CCRF-CEM leukemia
[10] = system: SF-295 CNS
[11] = system: NCI/ADR-RES ovarian
[12] = system: NCI-H226 lung
[13] = system: MALME-3M melanoma
[14] = system: PC-3 prostate
[15] = system: NCI-H460 lung
[16] = system: K-562 leukemia
[17] = system: SN12C renal
[18] = system: EKVX NSCLC
[19] = system: A549 NSCLC
[20] = system: IGROV1 ovarian
[21] = system: NCI-H23 lung
[22] = system: HCC-2998 colon
[23] = system: HOP-62 NSCLC
[24] = system: MDA-MB-435
[25] = system: HCT-15 colon
[26] = system: SW-620 colon
[27] = system: NCI-H522 lung
[28] = system: RPMI-8226 leukemia
[29] = system: A498 renal
[30] = system: BT-549 breast
[31] = system: HS 578T breast
[32] = system: UACC-257 melanoma
[33] = system: TK-10 renal
[34] = system: DU-145 prostate
[35] = system: HCT-116 colon
[36] = system: CAKI-1 renal
[37] = system: MOLT-4 leukemia
[38] = system: M14 melanoma
[39] = system: SF-539 CNS
[40] = system: SK-OV-3 ovarian
[41] = system: SK-MEL-28 melanoma
[42] = system: OVCAR-5 ovarian
[43] = system: U251 CNS
[44] = system: SK-MEL-5 melanoma
[45] = system: OVCAR-8 ovarian
[46] = system: MDA-MB-231 breast
[47] = system: COLO 205 colon
[48] = system: T-47D breast
[49] = system: ACHN renal
[50] = system: UO-31 renal
[51] = system: HL-60(TB) leukemia
[52] = system: SNB-75 CNS
[53] = system: OVCAR-3 ovarian
[54] = system: LOX IMVI melanoma
[55] = system: 786-0 renal
[56] = system: MCF7 breast
[57] = system: SF-268 CNS
[58] = system: SR leukemia

OCc1cn(Cc2ccc(Cl)cc2)c2ccccc12
0.195 µM: TGI [33]
30.8 µM: TGI [11]
60 µM: TGI [18]
0.709 µM: TGI [20]
19.9 µM: TGI [52]
44 µM: TGI [41]
4.44 µM: TGI [7]
0.0323 µM: TGI [29]
30.5 µM: TGI [13]
16.1 µM: TGI [54]
38.1 µM: TGI [6]
40 µM: TGI [45]
21.1 µM: TGI [21]
9.02 µM: TGI [56]
25.6 µM: TGI [31] | TGI [46]
71.7 µM: TGI [58]
25.4 µM: TGI [16]
0.601 µM: TGI [2]
32.9 µM: TGI [10]
21.4 µM: TGI [51]
7.69 µM: TGI [1]
active: GI50 [1] 0.281 µM | GI50 [2] 0.0565 µM | GI50 [7] 0.424 µM | GI50 [12] < 0.01 µM | GI50 [15] 0.124 µM | GI50 [20] < 0.0227 µM | GI50 [29] 0.0115 µM | GI50 [32] 0.22 µM | GI50 [33] < 0.0115 µM | GI50 [35] 0.0393 µM | GI50 [42] < 0.01 µM | GI50 [48] 0.0386 µM | GI50 [56] 0.105 µM
0.106 µM: TGI [12]
64.5 µM: TGI [4]
27.8 µM: TGI [39]
40.8 µM: TGI [19]
6.89 µM: TGI [47]
6.72 µM: TGI [8]
13 µM: TGI [50]
22.1 µM: TGI [38]
12 µM: TGI [35]
5.23 µM: TGI [28]
14.8 µM: TGI [27]
2.15 µM: TGI [36]
0.613 µM: TGI [42]
22.6 µM: TGI [43]
22.9 µM: TGI [26]
17.5 µM: TGI [30]
18.6 µM: TGI [44]
21.6 µM: TGI [17]
28.5 µM: TGI [25]
17.8 µM: TGI [3]
43.9 µM: TGI [24]
0.55 µM: TGI [48]
34.2 µM: TGI [49]
47.1 µM: TGI [14]
inactive: GI50 [3] 1.35 µM | GI50 [4] 15.8 µM | GI50 [5] 3.03 µM | GI50 [6] 16.9 µM | GI50 [8] 0.986 µM | GI50 [9] 2.2 µM | GI50 [10] 1.62 µM | GI50 [11] 8.41 µM | GI50 [13] 8.68 µM | GI50 [14] 15 µM | GI50 [16] 1.61 µM | GI50 [17] 4.66 µM | GI50 [18] 21.1 µM | GI50 [19] 2.64 µM | GI50 [21] 3.85 µM | GI50 [22] 4.09 µM | GI50 [23] 0.84 µM | GI50 [24] 17.1 µM | GI50 [25] 3.44 µM | GI50 [26] 0.811 µM | GI50 [27] 3.21 µM | GI50 [28] 0.636 µM | GI50 [30] 3.65 µM | GI50 [31] 4.76 µM | GI50 [34] 8.11 µM | GI50 [37] 19.6 µM | GI50 [38] 5.95 µM | GI50 [39] 11.5 µM | GI50 [40] 2.88 µM | GI50 [41] 15.1 µM | GI50 [43] 2.62 µM | GI50 [44] 4.59 µM | GI50 [45] 4.36 µM | GI50 [46] 6.02 µM | GI50 [47] 0.615 µM | GI50 [49] 3.57 µM | GI50 [50] 1.66 µM | GI50 [51] 3.9 µM | GI50 [52] 4.52 µM | GI50 [53] 0.495 µM | GI50 [54] 4.26 µM | GI50 [55] 2.51 µM | GI50 [57] 12.3 µM | GI50 [58] 15.9 µM
21.2 µM: TGI [55]
16.8 µM: TGI [9]
36.7 µM: TGI [57]
54 µM: TGI [37]
8.23 µM: TGI [53]
21.7 µM: TGI [23]
31.8 µM: TGI [34]
18.5 µM: TGI [15]
20.3 µM: TGI [22]
33.2 µM: TGI [40]
19.7 µM: TGI [5]
0.517 µM: TGI [32]

COc1cc(C(=O)N2CCN(c3ccccn3)CC2)c(N)cc1OCc1ccccc1
74.1 µM: TGI [16]
> 100 µM: TGI [1] | TGI [2] | TGI [3] | TGI [4] | TGI [5] | TGI [6] | TGI [7] | TGI [8] | TGI [10] | TGI [11] | TGI [12] | TGI [13] | TGI [14] | TGI [15] | TGI [17] | TGI [18] | TGI [19] | TGI [20] | TGI [21] | TGI [22] | TGI [24] | TGI [25] | TGI [26] | TGI [27] | TGI [28] | TGI [29] | TGI [30] | TGI [31] | TGI [32] | TGI [33] | TGI [34] | TGI [35] | TGI [36] | TGI [37] | TGI [38] | TGI [39] | TGI [40] | TGI [41] | TGI [42] | TGI [43] | TGI [44] | TGI [45] | TGI [46] | TGI [47] | TGI [48] | TGI [49] | TGI [50] | TGI [51] | TGI [52] | TGI [53] | TGI [54] | TGI [55] | TGI [56] | TGI [57] | TGI [58]
39.5 µM: TGI [9]
inactive: GI50 [1] 69.9 µM | GI50 [2] 81 µM | GI50 [3] 78.2 µM | GI50 [4] > 100 µM | GI50 [5] > 100 µM | GI50 [6] > 100 µM | GI50 [7] > 100 µM | GI50 [8] > 100 µM | GI50 [9] 21 µM | GI50 [10] > 100 µM | GI50 [11] 74.6 µM | GI50 [12] > 100 µM | GI50 [13] > 100 µM | GI50 [14] > 100 µM | GI50 [15] > 100 µM | GI50 [16] 20 µM | GI50 [17] 46.8 µM | GI50 [18] > 100 µM | GI50 [19] > 100 µM | GI50 [20] > 100 µM | GI50 [21] > 100 µM | GI50 [22] > 100 µM | GI50 [24] > 100 µM | GI50 [25] > 100 µM | GI50 [26] > 100 µM | GI50 [27] > 100 µM | GI50 [28] 56.4 µM | GI50 [29] 91.2 µM | GI50 [30] 66.4 µM | GI50 [31] > 100 µM | GI50 [32] > 100 µM | GI50 [33] > 100 µM | GI50 [34] > 100 µM | GI50 [35] > 100 µM | GI50 [36] > 100 µM | GI50 [37] 34.1 µM | GI50 [38] > 100 µM | GI50 [39] > 100 µM | GI50 [40] > 100 µM | GI50 [41] > 100 µM | GI50 [42] > 100 µM | GI50 [43] > 100 µM | GI50 [44] 30.1 µM | GI50 [45] > 100 µM | GI50 [46] > 100 µM | GI50 [47] 96.8 µM | GI50 [48] 45.2 µM | GI50 [49] > 100 µM | GI50 [50] 68.3 µM | GI50 [51] 82.4 µM | GI50 [52] 39.9 µM | GI50 [53] 55.8 µM | GI50 [54] > 100 µM | GI50 [55] > 100 µM | GI50 [56] 58.5 µM | GI50 [57] > 100 µM | GI50 [58] 77.7 µM
